# Laboratory results published in patent US20140329766A1, “Prophylactic Compositions for Management of Microbial Infections in Patients with Brain Injury” (UTI LIMITED PARTNERSHIP, priority 2011, published 2014).
# How the values were obtained:
# post-stroke infections = test: Bacteriological analysis (CFU) of blood, lungs, liver and spleen after MCAO; assay type: in vivo, mice; details: for bacterial infections at 24 h after MCAO: wild-type mice receiving propranolol or 6-OHDA (FIGS. 44A-44D)
# Protocol: Mice underwent the mid-cerebral artery occlusion (MCAO) model of cerebral ischemia-reperfusion injury as previously described (Connolly, Jr. et al., 1996; Wong et al., 2008). Male mice of 8-12 weeks old were anesthetized by intraperitoneal injection of a mixture of 10 mg/kg xylazine hydrochloride (MTC Pharmaceuticals, Cambridge, ON) and 200 mg/kg ketamine hydrochloride (Rogar/STB, London, ON). Body temperature was maintained at 37° C. using a heating pad and temperature regulator with rectal probe. Mice were randomly divided into 2 groups: (i) sham-operated, and (ii) MCAO-operated. All surgical instruments were sterilized before the surgery. Before any incision, the area was swabbed with ethanol. To induce MCAO, a 10-mm incision was made on the right-hand side of the neck. Then, the common carotid artery, external carotid artery, and internal carotid artery were dissected free. The external carotid artery was further dissected distally, then coagulated and cut to serve as a stump. After applying temporary clamps at the common carotid artery and internal carotid artery, a monofilament with a silicon coating diameter of 0.21-0.23 mm (Doccol Corporation, Redlands, Calif., USA) was inserted into the stump of the external carotid artery. The monofilament then advanced a defined distance (12 mm) so that the distal end of the monofilament came to rest across the origin of the MCA. The stump of external carotid artery was tied off. The wound on the neck of the mouse was sutured and the mouse was then transferred onto a heat pad to maintain its body temperature at 37° C. After 30 mins of occlusion, the monofilament was withdrawn to allow reperfusion to occur. The animal then recovered from the anaesthesia. Rehydration of the mice was performed every 4 h with a subcutaneous injection of electrolytes and glucose. Food pellets softened with water were placed in the cage after surgery as the mice recovered, and access to water was provided. Sham-operated animals were subjected to the initial anaesthetic and neck incision only. The animals were then allowed to recover from anaesthetic. All animals were put onto a 37° C. heat pad, post-surgery, to recover from anaesthesia until euthanized.
# (§1) The anaesthetized mice from Example 1 were washed with 70% ethanol under sterile conditions. Blood was collected by cardiac puncture. The lungs, liver and spleen were removed after thoracotomy and homogenized. For determination of colony forming units (CFU), 10 μl of tissue homogenate or blood was serially diluted, plated onto brain heart infusion (BHI) agar plates supplemented with 5% sheep blood (Daylnn Biologicals, Alberta, Canada), incubated at 37° C. for 18 h, and bacterial colonies were counted.
# as §1, with “Example 7” for “Example 1”
# [1] = assay type: in vivo; details: post-ischemic Cxcr6gfp/+ mice (FIG. 37)
# Protocol: Body temperature was maintained at 37° C. using a heating pad and temperature regulator with rectal probe. Mice were randomly divided into 2 groups: (i) sham-operated, and (ii) MCAO-operated. All surgical instruments were sterilized before the surgery. Before any incision, the area was swabbed with ethanol. To induce MCAO, a 10-mm incision was made on the right-hand side of the neck. Then, the common carotid artery, external carotid artery, and internal carotid artery were dissected free. The external carotid artery was further dissected distally, then coagulated and cut to serve as a stump. After applying temporary clamps at the common carotid artery and internal carotid artery, a monofilament with a silicon coating diameter of 0.21-0.23 mm (Doccol Corporation, Redlands, Calif., USA) was inserted into the stump of the external carotid artery. The monofilament then advanced a defined distance (12 mm) so that the distal end of the monofilament came to rest across the origin of the MCA. The stump of external carotid artery was tied off. The wound on the neck of the mouse was sutured and the mouse was then transferred onto a heat pad to maintain its body temperature at 37° C. After 30 mins of occlusion, the monofilament was withdrawn to allow reperfusion to occur. The animal then recovered from the anaesthesia. […]
# [2] = Brain infarct size after MCAO; assay type: in vivo, mice; details: systemic propranolol or 6-OHDA (FIG. 36)
# hepatic iNKT cells = test: Spinning disk confocal intravital microscopy of the liver: crawling behaviour of GFP+ (iNKT) cells; assay type: in vivo, mice; details: post-ischemic Cxcr6gfp/+ mice 24 h after MCAO; for iNKT cell phenotype (cessation of crawling) induced by MCAO: propranolol 30 mg/kg at 4 and 8 h after MCAO, 6-OHDA 250 mg/kg i.p. 3 days prior (FIGS. 32-34)
# Protocol: Murine liver intravital microscopy was performed as taught by Wong et al. (1997, A minimal role for selectins in the recruitment of leukocytes into the inflamed liver microvasculature. J. Clin. Invest. 99: 2782). Briefly, the tail vein of the anesthetized mice was cannulated to administer fluorescently labeled antibodies and/or additional anesthetic as required. Body temperature was maintained at 37° C. using an infrared heat lamp. Mice were placed in a right lateral position on an adjustable microscope stage. A lateral abdominal incision along the costal margin to the midaxillary line was made to exteriorize the liver, and all exposed tissues were moistened with saline-soaked gauze to prevent dehydration.
# Cells were tracked using ImageJ software version 1.45 (NIH at http://rsb.info.nih.gov/ij/). Time-lapse videos exported from Volocity were imported as .mov file, and then converted to 8-bit grayscale. Fluorescent cells were adjusted using threshold control, and noise particles less than 2.0 pixels were removed by filter. Movement of cells was measured using manual tracking, and was calculated for each track using ImageJ output spreadsheets. The cell velocity was expressed in distance (μm) per time (min). 30-40 tracks from 10 mins videos of each animal in each experimental group were analyzed.
# Excised livers were prepared for in vivo microscopic observation. Briefly, the liver was placed on the pedestal of an inverted microscope and the liver surface was then covered with a small piece of saline-soaked KimWipe to hold the organ in position. The liver microvasculature was visualized using a spinning-disk confocal microscopy and images were acquired with an Olympus IX81 inverted microscope using a ×10/0.40 UplanFL N objective. The microscope was equipped with a confocal light path (WaveFx, Quorum, Guelph, ON, CA) based on a modified Yokogawa CSU-10 head (Yokogawa Electric Corporation, Tokyo, Japan). Cxcr6^gfp/+ mice were used to visualize hepatic iNKT cells. Laser excitation wavelengths (Cobolt, Stockholm, Sweden) were used in rapid succession and visualized with the appropriate long-pass filters (Semrock, Rochester, N.Y.). Typical exposure time for each excitation wavelength was 300 milli-seconds. A 512×512 pixel back-thinned electron-multiplying charge-coupled device camera (C9100-13, Hamamatsu, Bridgewater, N.J.) was used for fluorescence detection. Volocity Acquisition software (Improvision) was used to drive the confocal microscope. […] Behaviors of iNKT cells in the hepatic microvasculature were assessed.
# Wildtype mice underwent the MCAO procedure as previously described in Example 1. […] The crawling behaviours of crawling GFP+ cells in livers from sham-operated control mice and post-ischemic mice were observed and quantified using the methods disclosed in Example 2.
# iNKT cells [3] = test: Localized noradrenalin superfusion on the liver of Cxcr6gfp/+ mice; assay type: in vivo
# Protocol: Alexa Fluor 647-conjugated rat anti-mouse PECAM-1 (clone 390; 1 μl) purchased from eBioscience (San Diego, Calif., USA) was mixed with the noradrenalin (5 μg; Sigma) to enable visualization of the epicentre of noradrenalin superfusion. Using intravital spinning-disk confocal microscopy, the behavior of iNKT cells was visualized and tracked in the epicentre of, and distant from the localized noradrenalin in the livers of Cxcr6^gfp/+ mice.
# iNKT cells [4] = test: In vitro noradrenalin activation of isolated iNKT cells; assay type: cell-based, mice
# Protocol: After gentle agitation at 37° C. for 30 min, the concentrate was passed through a 40-μm nylon filter and washed twice with ice-cold PBS (pH 7.4) and centrifuged at 400×g for 10 min. Lymphocytes were purified on a 44%/70% Percoll gradient and were negatively selected with anti-Gr-1 (RB6-8C5; eBioscience), anti-F4/80 (BM8; eBioscience), anti-CD19 (1D3; eBioscience), and anti-CD8a (53-6.7; eBioscience) microbeads and MiniMACS column (Miltenyi Biotech) to remove neutrophils, macrophages, B cells, and CD8+ cells, respectively. A pure iNKT cell population consisting of TCRf3+ and GFP+ cells were sorted. Purity of isolated iNKT cells was >95%. iNKT cells were seeded at 5×10^5 cells into plasma-coated 6 cm clear flat glass bottom dishes and allowed to settle in DMEM containing 10% FCS for 1 h. To examine noradrenalin activation of iNKT cells in vitro, iNKT cells were either pretreated with 400 μM propranolol and then treated with 200 μM noradrenalin or the iNKT cells were subjected to 200 μM noradrenalin alone. The behavior of iNKT cells was visualized and recorded with FluoView FV1000 confocal fluorescence microscope (Olympus). The recorded images were randomized and analyzed by three blinded investigators.
# [5] = system: intracellular IFNγ and IL-10 production; test: Intracellular cytokine analysis by flow cytometry; assay type: in vivo; details: post-ischemic wild-type mice treated with propranolol (FIG. 48)
# Protocol: For intracellular cytokine analysis, liver single cell suspensions from sham-operated and post-ischemic Cxcr6^gfp/+ mice were stained with PerCP-conjugated anti-CD69, washed with cold FWB, resuspended in Cytofix/Cytoperm (BD Bioscience) for 30 min on ice. Samples were washed in Perm/Wash (BD Bioscience) and then stained with Alexa Fluor 450-conjugated anti-IFNγ (XMG1.2, eBioscience) and PE-conjugated anti-IL-4 (11B11, BD Pharmingen) or PE-conjugated anti-IL-10 (JESS-16E3, eBioscience).
# [6] = 5 μg, liver of Cxcr6gfp/+ mice (FIGS. 38-40)
molecule,measurement,setting,value
"NCCc1cc(O)c(O)cc1O [Formula 6-OHDA, 6-hydroxydopamine]",bacterial infections at 24 h after MCAO,post-stroke infections,significantly reduced
same,Mortality at 24 h of reperfusion,[1],50%
same,infarct size in post-ischemic mice,[2],did not alter
same,iNKT cell phenotype (cessation of crawling) induced by MCAO,hepatic iNKT cells,completely inhibited
NC[C@H](O)c1ccc(O)c(O)c1 [noradrenaline],crawling behavior of iNKT cells in an area of liver distant from the superfusion,iNKT cells [3]; 5 μg (FIGS. 38-40),did not alter
same,crawling iNKT cells in the epicenter of noradrenaline administration,iNKT cells [3]; [6],Significantly fewer iNKT cells crawled
same,pirouetting iNKT cells in the epicenter of noradrenaline administration,iNKT cells [3]; [6],more cells adopted a pirouetting phenotype
same,iNKT cell morphology in vitro,iNKT cells [4]; 200 μM noradrenalin alone (FIG. 41),developed a pseudopod-protruding phenotype
CC(C)NCC(O)COc1cccc2ccccc12 (stereo not shown) [propranolol],protection from infection (bacterial loads in peripheral blood and lungs),post-stroke infections; post-ischemic Cd1d-/- mice (FIG. 46),no protection
same,bacterial infections at 24 h after MCAO,post-stroke infections,significantly reduced
same,infarct size in post-ischemic mice,[2],did not alter
same,iNKT cell phenotype (cessation of crawling) induced by MCAO,hepatic iNKT cells,reversed
same,noradrenaline-induced behavioral change of iNKT cells in vitro,"iNKT cells [4]; pretreatment 400 μM propranolol, then 200 μM noradrenalin (FIG. 42)",inhibited
same,intracellular IL-10 versus IFN-γ production,[5],reversed the preference for intracellular IL-10 production back to an intracellular IFN-γ dominant production
apyrase,iNKT cell arrest in response to MCAO,"hepatic iNKT cells; treatment just prior to MCAO (FIGS. 29, 30)",no effect
"recombinant IL-10: Recombinant IL-10 (Cedarlane), a TH2-type cytokine (protein, UniProt P18893 19-178, looked up) Interleukin-10: SRGQYSREDNNCTHFPVGQSHMLLELRTAFSQVKTFFQTKDQLDNILLTDSLMQDFKGYLGCQALSEMIQFYLVEVMPQAEKHGPEIKEHLNSLGEKLKTLRMRLRRCHRFLPCENKSKAVEQVKSDFNKLQDQGVYKAMNEFDIFINCIEAYMMIKMKS",stroke-induced lung infections (bacterial load in the lungs),"post-stroke infections; wild-type mice pretreated i.v. 1 h prior to MCAO, 1 μg/mouse (FIG. 22)",increased
